Values quoted from earlier work as cited in patent publication US20230310434A1, “METHODS OF REDUCING THE LIKELIHOOD OF CARCINOID HEART DISEASE IN PATIENTS WITH NEUROENDOCRINE TUMORS” (TerSera Therapeutics LLC, priority 2022, published 2023).

Key:
[1] = tested on: patients with carcinoid syndrome (CS) diarrhea; details: TELECAST
[2] = tested on: patients with carcinoid syndrome not adequately controlled with SSA therapy; details: TELESTAR; TE 250 or 500 mg three times daily; patients on stable dose SSA
[3] = TE 250 or 500 mg three times daily, patients on stable dose SSA

CCOC(=O)[C@@H](N)Cc1ccc(-c2cc(O[C@H](c3ccc(Cl)cc3-n3ccc(C)n3)C(F)(F)F)nc(N)n2)cc1 [TE, (S)-ethyl 2-amino-3-(4-(2-amino-6-((R)-1-(4-chloro-2-(3-methyl-1H-pyrazol-1-yl)phenyl)-2,2,2-trifluoroethoxy)pyrimidin-4-yl)phenyl)propanoate]
efficacy when added to SSAs to treat carcinoid syndrome diarrhea ([1]; TE 250 or 500 mg three times daily added to SSAs): effective
frequency of bowel movements [1, 3]: reduced
urinary 5-HIAA levels [1, 3]: reduced
frequency of bowel movements [2]: reduced
urinary 5-HIAA levels [2]: reduced
